Test results reported in US20090012005A1, “Use of an angiotensin IV antagonist to treat insulin resistance or cardiovascular risk related to metabolic syndrome” (priority 2007, published 2009).
“Also recorded” adds a separate entry of the source. Square brackets hold non-standard residues; d marks the D form. Peptide text beside a SMILES is read from it. * marks the point of attachment. ξ: configuration not given here. β3hF = N[C@H](CC(=O)O)Cc1ccccc1; Ile(3ξ) = CCC(C)[C@H](N)C(=O)O; X1 = CC(C)C(CN)C(=O)*

Assays:
[1] = system: angiotensinogen (AGT) and AT1 receptor (AT1R) expression in human vascular smooth muscle cells; assay: expression of angiotensinogen and AT1 receptors (mRNA) in primary human vascular smooth muscle cell cultures; type: cell-based; details: for inhibition of the angiotensinogen (and AT1 receptor) response to angiotensin IV: 100 nM angiotensin IV, antagonist at increasing concentrations, given 30 minutes before angiotensin IV (FIG. 3)
Method: This effect may be measured by analyzing messenger RNA as well as the corresponding proteins.
Inhibition of these effects of angiotensin IV by candidate compounds is the foundation of the model. These cellular models encompass a screening approach as well as quantitative approaches. Angiotensin IV is used at a concentration of 100 nM, a concentration at which its binding to angiotensin II receptors is minimal.
(§1) The inventors used primary cultures and vascular muscle smooth cell lines of various species (man, rat, mouse); all cell lines in which angiotensin IV exerts stimulatory effects on the expression of angiotensinogen and angiotensin II AT1 receptors may be used. The confluent smooth muscle cells are placed in a serum-free culture medium (human vascular smooth muscle medium 2 from Promocell, or any other equivalent medium), in order to block their multiplication and to synchronize them. After 24 hours of habituation in this culture medium, the medium is replaced by fresh medium to which the various test substances are added according to the order adapted to the experimental protocol. Measurements are taken after 24 hours of treatment in the case of analyses of angiotensinogen and AT1 receptor expression. The antagonists are applied to the cells 30 minutes before angiotensin IV. The cells are exposed to 100 μU/ml of insulin to measure glucose uptake.
The results are the mean of pairs of measurements taken in human vascular smooth muscle cells from six patients.

[2] = system: human vascular smooth muscle cells; assay: insulin-induced 3H-deoxyglucose uptake in human vascular smooth muscle cells; type: cell-based; details: for amplitude of maximum effect / lower plateau: inhibition of insulin-induced deoxyglucose uptake, 4-parameter logistic regression (FIG. 4); for reversion of the inhibition by angiotensin IV of insulin-induced glucose uptake: antagonist pretreatment, cells from five patients (FIG. 5)
From the text: This effect by angiotensin IV is not blocked by angiotensin II AT1 receptor antagonists or by angiotensin II AT2 receptor antagonists.
Angiotensin IV inhibits insulin-induced glucose uptake in vascular smooth muscle cells by a mechanism independent of angiotensin II AT1 and AT2 receptors.
as §1
The results are the mean of pairs of measurements taken in cells from six patients.

Row | Molecule | effect on IRAP expression [1] | effect on expression of angiotensinogen and AT1 receptors ([1]; independent of AT1 receptors (FIG. 2)) | amplitude of maximum effect [2] | lower plateau [2] | inhibition of the angiotensinogen (and AT1 receptor) response to angiotensin IV [1] | reversion of the inhibition by angiotensin IV of insulin-induced glucose uptake [2]
1 | CC[C@H](C)[C@H](NC(=O)[C@H](Cc1ccc(O)cc1)NC(=O)[C@@H](N)C(C)C)C(=O)N[C@@H](Cc1cnc[nH]1)C(=O)N1CCC[C@H]1C(=O)N[C@@H](Cc1ccccc1)C(=O)O [angiotensin IV, Val-Tyr-Ile-His-Pro-Phe] | reduces | stimulating | 58.0%±2.3% | 41.9±1.4 | – | –
2 | CC(C)[C@H](N)CN[C@@H](Cc1ccc(O)cc1)C(=O)N[C@H](CN[C@@H](Cc1c[nH]cn1)C(=O)N1CCC[C@H]1C(=O)N[C@@H](Cc1ccccc1)C(=O)O)C(C)C [divalinal, N-Val-(CH2—NH)-Tyr-Val(CH2—NH)-His-Pro-Phe] | – | – | – | – | inhibition; also recorded: weaker depressor of the maximum response | reversion
3 | CCC(C)[C@H](NC(=O)[C@H](Cc1ccc(O)cc1)NC(=O)C(CN)C(C)C)C(=O)N[C@@H](Cc1c[nH]cn1)C(=O)N1CCC[C@H]1C(=O)N[C@H](CC(=O)O)Cc1ccccc1 (stereo partly drawn) [compound AL-11, H-β^2hVal-Tyr-Ile-His-Pro-β^3hPhe-OH] (X1-Y[Ile(3ξ)]HP[β3hF]-OH) | – | – | – | – | inhibition; also recorded: much more powerful in preventing the response | reversion
4 | Angiotensin II: angiotensin peptide hormone acting on AT1 and AT2 receptors, used for comparison (DRVYIHPF; Angiotensin-2; UniProt P01019 25-32, looked up) | – | – | 42.2%±6.4% | 56.3±4.5 | – | –
5 | LVV-hemorphin-7 | – | – | – | – | no activity | no activity
